Measurements taken from US20070191406A1, “Heterocyclic antiviral compounds” (Roche Palo Alto LLC, priority 2006, published 2007).
Counter-ions that a name gives are not always drawn.

Target: T1, CCR5 (Homo sapiens, UniProt P51681)
T1 construct: host or cells: CEM-NKr-CCR5-Luc
Assay: CCR5-Mediated CCF Assay
Assay type: cell-based
Settings: Hela-R5 cells (gp160 from R5-tropic virus, HIV-1 Tat) co-cultured 24 hrs with CEM-NKr-CCR5-Luc cells; luciferase readout
Experimental: CCF assay was performed as described before (C. Ji, J. Zhang, N. Cammack and S. Sankuratri, J. Biomol. Screen. 2006 11(6):652-663). Hela-R5 cells (express gp160 from R5-tropic virus and HIV-1 Tat) were plated in 384 well white culture plates (BD Bioscience, Palo Alto, Calif.) at 7.5×10^3 cells per well in phenol red-free Dulbecco's Modified Eagle Medium (DMEM) supplemented with 10% FBS, 1× Pen-Strep, 300 μg/mL G418, 100 μg/mL hygromycin, and 1 μg/mL Doxycycline (Dox) (BD Bioscience, Palo Alto, Calif.), using Multimek (Beckman, Fullerton, Calif.) and incubated at 37° C. overnight to induce the expression of gp160. Ten μL diluted compounds in medium containing 5% DMSO were added to the cells, followed by the addition of CEM-NKr-CCR5-Luc (obtained from NIH AIDS Research & Reference Reagents Program) that expresses CD4 and CCR5 and carries a HIV-2 long terminal repeat (LTR)-driven luciferase reporter gene at 1.5×10^4 cells/15 μL/well and incubated for 24 hrs. At the end of co-culture, 15 μL of Steady-Glo luciferase substrate was added into each well, and the cultures were sealed and gently shaken for 45 min. The luciferase activity were measured for 10 sec per well as luminescence by using 16-channel TopCount NXT (PerkinElmer, Shelton, Conn.) with 10 min dark adaptation and the readout is count per second (CPS). For the drug interaction experiments, small molecule compounds or antibodies were serially diluted in serum-free and phenol red-free RPMI containing 5% DMSO (CalBiochem, La Jolla, Calif.) and 1× Pen-Strep. Five μL each of the two diluted compound or mAb to be tested for drug-drug interactions were added to the Hela-R5 cells right before the addition of target cells.

T1 sequence (P51681 whole entry): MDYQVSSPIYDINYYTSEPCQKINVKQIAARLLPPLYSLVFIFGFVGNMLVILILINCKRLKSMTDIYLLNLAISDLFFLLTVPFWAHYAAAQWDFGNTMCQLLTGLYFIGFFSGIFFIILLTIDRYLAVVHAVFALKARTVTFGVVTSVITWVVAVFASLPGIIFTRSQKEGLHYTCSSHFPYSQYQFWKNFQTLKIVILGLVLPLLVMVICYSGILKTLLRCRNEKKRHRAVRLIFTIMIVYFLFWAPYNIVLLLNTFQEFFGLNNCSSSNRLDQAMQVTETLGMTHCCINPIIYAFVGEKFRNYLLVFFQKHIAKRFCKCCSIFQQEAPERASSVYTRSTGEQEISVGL

Row | IC50 | Structure (SMILES)
1 | 9.8 nM | Cc1ccc(N(CCCN2CC3CN(C(=O)c4c(C)cccc4C)CC3C2)C(=O)[C@@H]2CC[C@H](C(=O)O)C2)cc1Cl (stereo partly drawn) [I-4, (1S,3R)-3-((3-Chloro-4-methyl-phenyl)-{3-[5-(2,6-dimethyl-benzoyl)-hexahydro-pyrrolo[3,4-c]pyrrol-2-yl]-propyl}-carbamoyl)-cyclopentanecarboxylic acid, trifluoro-acetate salt]
2 | 7.4 nM | Cc1ccnc(C)c1C(=O)N1CC2CN(CC[C@H](NC(=O)C3CCC(=O)C3)c3cccc(F)c3)CC2C1 (stereo partly drawn) [I-23, 3-Oxo-cyclopentanecarboxylic acid [(S)-3-[5-(2,4-dimethyl-pyridine-3-carbonyl)-hexahydro-pyrrolo[3,4-c]pyrrol-2-yl]-1-(3-fluoro-phenyl)-propyl]-amide]
3 | 6.5 nM | Cc1ncnc(C)c1C(=O)N1CC2CN(CC[C@H](NC(=O)C3CCCC(=O)C3)c3cccc(F)c3)CC2C1 (stereo partly drawn) [I-24, 3-Oxo-cyclohexanecarboxylic acid [(S)-3-[5-(4,6-dimethyl-pyrimidine-5-carbonyl)-hexahydro-pyrrolo[3,4-c]pyrrol-2-yl]-1-(3-fluoro-phenyl)-propyl]-amide]
4 | 3.5 nM | COC(=O)[C@H]1CC[C@@H](C(=O)N(CCCN2C[C@@H]3CN(C(=O)c4c(C)ncnc4C)C[C@@H]3C2)c2ccc(C)c(Cl)c2)CC1 [I-31]
5 | 1.7 nM | Cc1cccc(C)c1C(=O)N1CC2CN(CC[C@H](NC(=O)C3CCCC3C(=O)O)c3ccccc3)CC2C1 (stereo partly drawn) [I-33, 2-{(S)-3-[5-(2,6-Dimethyl-benzoyl)-hexahydro-pyrrolo[3,4-c]pyrrol-2-yl]-1-phenyl-propylcarbamoyl}-cyclopentanecarboxylic acid]
